# Reference: patent US10508089B2, “Use of N-(1,3,4-Oxadiazol-2-yl)arylcarboxamides or their salts for controlling unwanted plants in areas of transgenic crop plants being tolerant to HPPD inhibitor herbicides” (BASF SE, priority 2014, dated 2019)
# Where two headings read alike, the source gives them in different places.
# What was measured:
# [1] = test system: T2 soybean events expressing PfHPPD-W336 (PfHPPD-G336W); assay type: in vivo; conditions: 14 days after treatment
# [2] = biological target: PfHPPD Evo 41 SEQ ID No 29 (Pseudomonas sp., UniProt P80064, A172V/A339Q/A53E/D148E/D45N/E105D/E287Q/E300V/E334P/F143Y/G286D/G335W/H150N/H254A/H63N/I158V/I187A/I249V/K338A/K92N/L18F/N24G/N280D/S245T/S257K/S301E/T205S/V65I); assay: biochemical; set-up: species or system Pseudomonas fluorescens
# [3] = test system: T2 soybean events expressing PfHPPD-Evo41; assay type: in vivo; conditions: 14 days after treatment
# [4] = test system: T3 cotton events expressing PfHPPD-Evo33; assay type: in vivo; conditions: 200 g Al/ha, post-emergence V3, scored after 14 days, field
# wild type soybean Merlin = assay type: in vivo; conditions: 14 days after treatment, total 4
# [5] = test system: T2 soybean events expressing PfHPPD-Evo33; assay type: in vivo; conditions: 14 days after treatment
# Avena HPPD SEQ ID No 2 = Avena HPPD SEQ ID No 2 (Avena sativa, UniProt A0ACD5V6K6); assay: Determination of HPPD activity in presence of N-(1,3,4-Oxadiazol-2-yl)arylcarboxamides (pI50); assay type: biochemical; conditions: negative log of molar concentration; inhibitor 0.1 to 100 μM; room temperature; 600 μM HPP
# Protocol: (§1) HPPD activity was measured at room temperature by adding appropriate amounts of HPPD to a solution of 200 mM Tris-HCl pH 7.6, 10 mM ascorbate, 20 μM FeSO4, 650 units of catalase, 8 μg HGA dioxygenase (HGA: homogentisate) and 600 μM HPP in a total volume of 1 ml. Initial reaction rates in the absence or presence of inhibitors were determined from the increase in absorbance at 318 nm due to the formation of maleylacetoacetate (ϵ318=11,900 M−1 cm−1). pI50-values (the negative log values of the concentration of inhibitor necessary to inhibit 50% of the enzyme activity in molar concentration were determined from dose-response plots of HPPD activity versus inhibitor concentrations tested (0.1 to 100 μM) using the 4 Parameter Logistic Model or Sigmoidal Dose-Response Model of the ID Business Solutions Ltd. XLfit software suite. Due to the UV absorption of the HPPD inhibitors tested, inhibitor concentrations >100 μM could not be tested. In cases, the symbol “>” is used this means that the value was far higher than the one indicated but could not be precisely calculated within in the range of concentration of inhibitor tested.
# (§2) In the 1st column of Table 8, the chemical compound employed in the assay is named (according to the numbering of the Tables 1 to 7, above). In columns 2, 3, 4, and 5 the pI50-values of the corresponding chemical compounds against various HPPD enzymes (name and SEQ ID Nos are indicated, respectively) are given.
# FMP 37 SEQ ID No 9 = FMP 37 SEQ ID No 9 (Blepharisma japonicum, UniProt A8R3H6); assay: as above; assay type: biochemical; conditions: negative log of molar concentration; inhibitor 0.1 to 100 μM; room temperature; 600 μM HPP
# Protocol: as §1, §2
# [6] = biological target: PfHPPD Evo 40 SEQ ID No 27 (Pseudomonas sp., UniProt P80064, A172V/A339E/A53E/D148E/D45N/E105D/E287Q/E300V/E334P/F143Y/G286D/G335S/H150N/H254A/H63N/I158V/I187A/I249V/K92N/L18F/N24G/N280D/S245T/S257K/S301E/T205S/V65I); assay: biochemical; set-up: species or system Pseudomonas fluorescens
# wild type soybean Thorne = assay type: in vivo; conditions: 14 days after treatment, total 4
# Avena HPPD SEQ ID No 2, sequence (A0ACD5V6K6 entry or part of it): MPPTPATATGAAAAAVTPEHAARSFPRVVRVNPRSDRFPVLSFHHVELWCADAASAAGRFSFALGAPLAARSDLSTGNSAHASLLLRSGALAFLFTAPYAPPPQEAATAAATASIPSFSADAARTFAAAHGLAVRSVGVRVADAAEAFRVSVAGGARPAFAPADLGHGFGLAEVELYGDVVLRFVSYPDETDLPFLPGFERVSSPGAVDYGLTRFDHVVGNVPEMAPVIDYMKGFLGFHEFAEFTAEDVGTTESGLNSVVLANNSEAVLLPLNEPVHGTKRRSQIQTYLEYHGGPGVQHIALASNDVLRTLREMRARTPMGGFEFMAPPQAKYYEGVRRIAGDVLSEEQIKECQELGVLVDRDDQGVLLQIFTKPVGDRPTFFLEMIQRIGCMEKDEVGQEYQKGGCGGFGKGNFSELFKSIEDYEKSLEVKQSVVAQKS
# PfHPPD Evo 40 SEQ ID No 27, sequence (P80064 1-354 with tags or gaps with the stated changes limits assumed): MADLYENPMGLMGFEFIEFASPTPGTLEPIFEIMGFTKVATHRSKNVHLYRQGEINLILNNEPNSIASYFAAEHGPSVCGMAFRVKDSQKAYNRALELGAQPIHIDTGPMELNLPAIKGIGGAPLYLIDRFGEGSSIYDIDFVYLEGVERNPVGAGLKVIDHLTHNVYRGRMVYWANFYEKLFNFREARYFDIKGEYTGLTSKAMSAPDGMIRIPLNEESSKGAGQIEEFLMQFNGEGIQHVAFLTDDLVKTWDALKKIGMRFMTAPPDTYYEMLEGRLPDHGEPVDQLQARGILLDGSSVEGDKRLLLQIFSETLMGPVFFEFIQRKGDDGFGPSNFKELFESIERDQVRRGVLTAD
# PfHPPD Evo 41 SEQ ID No 29, sequence (P80064 1-354 with tags or gaps with the stated changes limits assumed): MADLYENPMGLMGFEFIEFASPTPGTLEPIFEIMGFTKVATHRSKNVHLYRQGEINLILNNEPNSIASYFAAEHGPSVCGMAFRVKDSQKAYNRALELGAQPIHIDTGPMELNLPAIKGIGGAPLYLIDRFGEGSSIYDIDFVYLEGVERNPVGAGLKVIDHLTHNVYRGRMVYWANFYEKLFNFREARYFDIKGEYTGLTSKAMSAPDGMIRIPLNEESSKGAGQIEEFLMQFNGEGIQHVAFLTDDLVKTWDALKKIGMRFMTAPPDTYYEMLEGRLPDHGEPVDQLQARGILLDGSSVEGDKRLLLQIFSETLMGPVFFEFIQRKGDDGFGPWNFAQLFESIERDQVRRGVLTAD
# FMP 37 SEQ ID No 9, sequence (A8R3H6 entry or part of it): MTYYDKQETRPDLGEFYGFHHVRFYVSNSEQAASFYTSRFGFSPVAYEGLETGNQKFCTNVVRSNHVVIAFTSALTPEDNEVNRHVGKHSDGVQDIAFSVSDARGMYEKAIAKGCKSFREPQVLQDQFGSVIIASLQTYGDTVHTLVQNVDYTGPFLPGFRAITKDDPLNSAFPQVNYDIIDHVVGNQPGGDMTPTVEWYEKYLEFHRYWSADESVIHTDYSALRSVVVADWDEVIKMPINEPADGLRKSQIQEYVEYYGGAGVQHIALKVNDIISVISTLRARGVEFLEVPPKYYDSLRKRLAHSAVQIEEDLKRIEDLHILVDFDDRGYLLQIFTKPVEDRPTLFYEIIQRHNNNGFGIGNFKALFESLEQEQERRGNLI
compound,measurement,setting,value
Cc1nnc(NC(=O)c2ccc(C(F)(F)F)c(S(C)(=O)=O)c2C)o1 [Compound 2-145],Number of plants categorized herbicide tolerance “0” (marginal; 41%-100% damaged leaf area),"[1]; 6.25 g Al/ha, total 12",1
same,Number of plants categorized herbicide tolerance “1” (moderate; 26%-40% damaged leaf area),"[1]; 6.25 g Al/ha, total 12",0
same,Number of plants categorized herbicide tolerance “2” (good; 16%-25% damaged leaf area),"[1]; 6.25 g Al/ha, total 12",0
same,Number of plants categorized herbicide tolerance “3” (high; less than or equal to 15% damaged leaf area),"[1]; 6.25 g Al/ha, total 12",11
same,Number of plants categorized herbicide tolerance “0” (marginal; 41%-100% damaged leaf area),"[1]; 25 g Al/ha, total 16",0
same,Number of plants categorized herbicide tolerance “1” (moderate; 26%-40% damaged leaf area),"[1]; 25 g Al/ha, total 16",2
same,Number of plants categorized herbicide tolerance “2” (good; 16%-25% damaged leaf area),"[1]; 25 g Al/ha, total 16",3
same,Number of plants categorized herbicide tolerance “3” (high; less than or equal to 15% damaged leaf area),"[1]; 25 g Al/ha, total 16",11
same,Number of plants categorized herbicide tolerance “0” (marginal; 41%-100% damaged leaf area),"[1]; 50 g Al/ha, total 4",0
same,Number of plants categorized herbicide tolerance “1” (moderate; 26%-40% damaged leaf area),"[1]; 50 g Al/ha, total 4",0
same,Number of plants categorized herbicide tolerance “2” (good; 16%-25% damaged leaf area),"[1]; 50 g Al/ha, total 4",1
same,Number of plants categorized herbicide tolerance “3” (high; less than or equal to 15% damaged leaf area),"[1]; 50 g Al/ha, total 4",3
same,Number of plants categorized herbicide tolerance “0” (marginal; 41%-100% damaged leaf area),"[1]; 75 g Al/ha, total 4",0
same,Number of plants categorized herbicide tolerance “1” (moderate; 26%-40% damaged leaf area),"[1]; 75 g Al/ha, total 4",1
same,Number of plants categorized herbicide tolerance “2” (good; 16%-25% damaged leaf area),"[1]; 75 g Al/ha, total 4",0
same,Number of plants categorized herbicide tolerance “3” (high; less than or equal to 15% damaged leaf area),"[1]; 75 g Al/ha, total 4",3
same,IC50,[2],5.01 µM
same,Number of plants categorized herbicide tolerance “0” (marginal; 41%-100% damaged leaf area),"[3]; 6.25 g Al/ha, total 12",0
same,Number of plants categorized herbicide tolerance “1” (moderate; 26%-40% damaged leaf area),"[3]; 6.25 g Al/ha, total 12",1
same,Number of plants categorized herbicide tolerance “2” (good; 16%-25% damaged leaf area),"[3]; 6.25 g Al/ha, total 12",0
same,Number of plants categorized herbicide tolerance “3” (high; less than or equal to 15% damaged leaf area),"[3]; 6.25 g Al/ha, total 12",11
same,Number of plants categorized herbicide tolerance “0” (marginal; 41%-100% damaged leaf area),"[3]; 25 g Al/ha, total 16",0
same,Number of plants categorized herbicide tolerance “1” (moderate; 26%-40% damaged leaf area),"[3]; 25 g Al/ha, total 16",0
same,Number of plants categorized herbicide tolerance “2” (good; 16%-25% damaged leaf area),"[3]; 25 g Al/ha, total 16",0
same,Number of plants categorized herbicide tolerance “3” (high; less than or equal to 15% damaged leaf area),"[3]; 25 g Al/ha, total 16",16
same,Number of plants categorized herbicide tolerance “0” (marginal; 41%-100% damaged leaf area),"[3]; 50 g Al/ha, total 4",0
same,Number of plants categorized herbicide tolerance “1” (moderate; 26%-40% damaged leaf area),"[3]; 50 g Al/ha, total 4",0
same,Number of plants categorized herbicide tolerance “2” (good; 16%-25% damaged leaf area),"[3]; 50 g Al/ha, total 4",2
same,Number of plants categorized herbicide tolerance “3” (high; less than or equal to 15% damaged leaf area),"[3]; 50 g Al/ha, total 4",2
same,Number of plants categorized herbicide tolerance “0” (marginal; 41%-100% damaged leaf area),"[3]; 75 g Al/ha, total 4",0
same,Number of plants categorized herbicide tolerance “1” (moderate; 26%-40% damaged leaf area),"[3]; 75 g Al/ha, total 4",0
same,Number of plants categorized herbicide tolerance “2” (good; 16%-25% damaged leaf area),"[3]; 75 g Al/ha, total 4",0
same,Number of plants categorized herbicide tolerance “3” (high; less than or equal to 15% damaged leaf area),"[3]; 75 g Al/ha, total 4",4
same,Average maximum phytotoxicity scoring,[4]; cotton event Evo33/1,3 (“3” = high tolerance; 0%-10% damaged leaf area)
same,Average maximum phytotoxicity scoring,[4]; cotton event Evo33/2,3 (“3” = high tolerance; 0%-10% damaged leaf area)
same,Average maximum phytotoxicity scoring,[4]; cotton event Evo33/3,3 (“3” = high tolerance; 0%-10% damaged leaf area)
same,Average maximum phytotoxicity scoring,[4]; cotton event Evo33/4,3 (“3” = high tolerance; 0%-10% damaged leaf area)
same,Average maximum phytotoxicity scoring,[4]; cotton event Evo33/5,3 (“3” = high tolerance; 0%-10% damaged leaf area)
same,Average maximum phytotoxicity scoring,[4]; cotton event Evo33/6,3 (“3” = high tolerance; 0%-10% damaged leaf area)
same,Number of plants categorized herbicide tolerance “0” (marginal; 41%-100% damaged leaf area),"wild type soybean Merlin; Merlin (wt), 6.25 g Al/ha",4
same,Number of plants categorized herbicide tolerance “1” (moderate; 26%-40% damaged leaf area),"wild type soybean Merlin; Merlin (wt), 6.25 g Al/ha",0
same,Number of plants categorized herbicide tolerance “2” (good; 16%-25% damaged leaf area),"wild type soybean Merlin; Merlin (wt), 6.25 g Al/ha",0
same,Number of plants categorized herbicide tolerance “3” (high; less than or equal to 15% damaged leaf area),"wild type soybean Merlin; Merlin (wt), 6.25 g Al/ha",0
same,Number of plants categorized herbicide tolerance “0” (marginal; 41%-100% damaged leaf area),"wild type soybean Merlin; Merlin, 25 g Al/ha",4
same,Number of plants categorized herbicide tolerance “1” (moderate; 26%-40% damaged leaf area),"wild type soybean Merlin; Merlin, 25 g Al/ha",0
same,Number of plants categorized herbicide tolerance “2” (good; 16%-25% damaged leaf area),"wild type soybean Merlin; Merlin, 25 g Al/ha",0
same,Number of plants categorized herbicide tolerance “3” (high; less than or equal to 15% damaged leaf area),"wild type soybean Merlin; Merlin, 25 g Al/ha",0
same,Number of plants categorized herbicide tolerance “0” (marginal; 41%-100% damaged leaf area),"[5]; 6.25 g Al/ha, total 12",0
same,Number of plants categorized herbicide tolerance “1” (moderate; 26%-40% damaged leaf area),"[5]; 6.25 g Al/ha, total 12",0
same,Number of plants categorized herbicide tolerance “2” (good; 16%-25% damaged leaf area),"[5]; 6.25 g Al/ha, total 12",0
same,Number of plants categorized herbicide tolerance “3” (high; less than or equal to 15% damaged leaf area),"[5]; 6.25 g Al/ha, total 12",12
same,Number of plants categorized herbicide tolerance “0” (marginal; 41%-100% damaged leaf area),"[5]; 25 g Al/ha, total 16",1
same,Number of plants categorized herbicide tolerance “1” (moderate; 26%-40% damaged leaf area),"[5]; 25 g Al/ha, total 16",1
same,Number of plants categorized herbicide tolerance “2” (good; 16%-25% damaged leaf area),"[5]; 25 g Al/ha, total 16",0
same,Number of plants categorized herbicide tolerance “3” (high; less than or equal to 15% damaged leaf area),"[5]; 25 g Al/ha, total 16",14
same,Number of plants categorized herbicide tolerance “0” (marginal; 41%-100% damaged leaf area),"[5]; 50 g Al/ha, total 4",0
same,Number of plants categorized herbicide tolerance “1” (moderate; 26%-40% damaged leaf area),"[5]; 50 g Al/ha, total 4",0
same,Number of plants categorized herbicide tolerance “2” (good; 16%-25% damaged leaf area),"[5]; 50 g Al/ha, total 4",1
same,Number of plants categorized herbicide tolerance “3” (high; less than or equal to 15% damaged leaf area),"[5]; 50 g Al/ha, total 4",3
same,Number of plants categorized herbicide tolerance “0” (marginal; 41%-100% damaged leaf area),"[5]; 75 g Al/ha, total 4",0
same,Number of plants categorized herbicide tolerance “1” (moderate; 26%-40% damaged leaf area),"[5]; 75 g Al/ha, total 4",0
same,Number of plants categorized herbicide tolerance “2” (good; 16%-25% damaged leaf area),"[5]; 75 g Al/ha, total 4",0
same,Number of plants categorized herbicide tolerance “3” (high; less than or equal to 15% damaged leaf area),"[5]; 75 g Al/ha, total 4",4
same,IC50,Avena HPPD SEQ ID No 2,1580 nM
same,IC50,FMP 37 SEQ ID No 9,10 µM
same,IC50,[6],5.01 µM
same,Number of plants categorized herbicide tolerance “0” (marginal; 41%-100% damaged leaf area),"wild type soybean Thorne; Thorne (wt), 6.25 g Al/ha",4
same,Number of plants categorized herbicide tolerance “1” (moderate; 26%-40% damaged leaf area),"wild type soybean Thorne; Thorne (wt), 6.25 g Al/ha",0
same,Number of plants categorized herbicide tolerance “2” (good; 16%-25% damaged leaf area),"wild type soybean Thorne; Thorne (wt), 6.25 g Al/ha",0
same,Number of plants categorized herbicide tolerance “3” (high; less than or equal to 15% damaged leaf area),"wild type soybean Thorne; Thorne (wt), 6.25 g Al/ha",0
same,Number of plants categorized herbicide tolerance “0” (marginal; 41%-100% damaged leaf area),"wild type soybean Thorne; Thorne, 25 g Al/ha",4
same,Number of plants categorized herbicide tolerance “1” (moderate; 26%-40% damaged leaf area),"wild type soybean Thorne; Thorne, 25 g Al/ha",0
same,Number of plants categorized herbicide tolerance “2” (good; 16%-25% damaged leaf area),"wild type soybean Thorne; Thorne, 25 g Al/ha",0
same,Number of plants categorized herbicide tolerance “3” (high; less than or equal to 15% damaged leaf area),"wild type soybean Thorne; Thorne, 25 g Al/ha",0
